Data: patent publication US9572890B2, “Oral formulations of mitochondrially-targeted antioxidants and their preparation and use” (MITOTECH SA, priority 2011, dated 2017)

How the values were obtained:
[1] = system: ICAM-1 mRNA; test: ICAM-1 mRNA level in aortas of old mice; format: in vivo; details: 24 months old C57Black/CBA mice; SkQ1 in drinking water for 7 months
Procedure: As described above in Example 7A, above, the expression of ICAM-1 is elevated under many pathological vascular conditions. SkQ1 efficacy in reducing ICAM-1 expression in vivo was tested on mice. 30 hybrid male C57Black/CBA mice were divided into 3 experimental groups (10 animals in each group) at the beginning of the experiment. The group “Young mice” included mice at the age of 6 months. Groups “Old mice” and “Old mice, SkQ1” included mice at the age of 24 months. The group “Old mice, SkQ1” had free access to drinking water with 100 nM water-dissolved SkQ1 per 1 kg of body weight for 7 months. After this period, the animals were decapitated. Aortas were excised, and total RNA was isolated using […] Blood and Tissue kit (QIAGEN), reverse-transcribed into cDNA, and used for quantitative real-time PCR analysis of ICAM-1 mRNA level. For the normalization procedure the average geometry of expression levels of housekeeping genes GAPDH and RPL32 was used Data are shown as means±S.E.M.

[2] = Stability of MTAs in liquid solvents (degradation rate); format: physicochemical
Procedure: Liquid solvents were also tested for their ability to stabilize representative MTAs SkQ1 and SkQR1. The solvents tested were water solutions of glycerol (10% to 100%), 50% lactulose, and 1,2-propylene glycol (10% to 100%, at 60° C.). Some representative results are shown below (Table 1).

[3] = system: cytokines (IL-6, IL-8) protein secretion; test: IL-6, IL-8 protein secretion induced by TNF-α in EAhy926 cells (ELISA); format: cell-based, human; details: 0.2 nM for 4 d; TNF-α 5 ng/ml for 15 h
Source text: The effects of SkQ1 on ICAM-1 mRNA expression and cytokines (IL-6, IL-8) protein secretion induced by TNF-α in EAhy926 human endothelial cells (ATCC collection; catalog number CRL-2922) were examined. TNF-α is a central proinflammatory cytokine stimulating expression of cell adhesion molecules and many inflammatory cytokines. Anti-inflammatory properties of many drugs often rely on their ability to inhibit expression of pro-inflammatory cytokines induced by TNF-α using EAhy926 endothelial cells (Edgell et al. (1983) Proc. Natl. Acad. Sci. USA, 80:3734-7; Lombardi et al. (2009) Eur. J. Cell. Biol., 88:731-42; Manea et al. (2010) Cell Tissue Res., 340:71-9).
300,000 cells were plated on 60 mm^2 culture dishes and after attachment were treated with an SkQ1 solution (0.2 nM in DMEM medium with 10% fetal serum) for 4 d, and then stimulated with TNF-α (0.05 ng/ml for 4 h for ICAM-1 or 5 ng/ml for 15 h for cytokines, respectively). ICAM-1 mRNA expression was determined by real-time PCR (Okada et al. (2005) Invest. Ophtalmol. Vis. Sci., 46:4512-8). Secretion of IL-6 and IL-8 was evaluated by ELISA (Toma et al. (2009) Biochem. Biophys. Res. Commun., 390:877-82; Volanti et al. (2002) Photochem. Photobiol., 75:36-45.) The data is shown as means±S.E. at least for 3 separate experiments.

[4] = Accelerated decay experiment of SkQ1H2/ascorbic acid powder; format: physicochemical; details: powder 95% ascorbic acid and 5% SkQ1H2
Procedure: SkQ1H2, a reduced quinole form of SkQ, was prepared as follows: 10 ml SkQ1H2 solution (with concentration 1 mg/ml) in ethanol was thoroughly mixed with 200 mg ascorbic acid and then vacuum dried.

[5] = system: full-thickness dermal wounds of db/db mice; test: Wound healing in db/db diabetic mice; format: in vivo; details: SkQ1 in 20% glycerol, 250 nmol/kg per day, 10 to 12 weeks; 7 days after wounding
Source text: Wound healing was studied in two series using 6 months old C57BLKS-Leprdb/J mice (db/db) homozygous and heterozygous C57BLKS-Leprdb/J mice (db/+) mice. These mice are used as type II diabetes model with impaired wound healing (Michaels, et al. (2007) Wound Repair and Regeneration, 15:665-670).
The mice were daily administered 250 nmol/kg body weight per day with the pharmaceutical form of SkQ1 in 20% glycerol as described in Example 8) during period of time from 10 weeks to 12 weeks. Control groups of db/db and db/+ mice were not treated with SkQ1. Full-thickness dermal wounds were made under anesthesia of ketamine (80 mg/kg). Animals were kept in plastic cages under standard temperature, light, and feeding regimes. 7 days after wounding, animals were sacrificed by decapitation. The wounds were excised, fixed in 10% formalin in standard PBS buffer, histologically processed, and embedded in paraffin. Histological sections of central part of the wounds were cut and stained with hematoxylin and eosin. The sections were immunohistochemically stained for markers of endothelial cells (CD31), macrophages (f4/80), and myofibroblasts (smooth muscle α-actin). ImageJ software (National Institutes of Health (NIH) http:/rsb.info.nih.gov/ij/) was used to calculate total amount of cells, number of neutrophils, macrophages and vessel density (vessel area/granulation tissue area*100) on the microphotographs of wound sections. For each animal 100 mm^2 of section area was analyzed. Wound epithelization rate was assessed in % as ratio of epithelized wound area to total wound area on tissue section*100. For statistical analysis nonparametric Mann-Whitney U-test was used. Data are shown as means±S.E.M.

[6] = system: db/db mice; test: Hepatic TBA-reactive substance content (MDA) in db/db diabetic mice; format: in vivo; details: SkQ1 in 20% glycerol, 250 nmol/kg per day orally for 12 weeks
Procedure: SkQ1 in 20% glycerol, as described below in Example 8 (250 nmol/kg per day) was orally administered to 10 to 12 week old homozygous db/db mice (n=8), while vehicle db/db (n=8) and non-diabetic control heterozygous db/++ (n=5) mice for 12 weeks. The hepatic TBA-reactive substance content (MDA) was determined by assay according to the method of Mihara et al. ((1978) Anal. Biochem., 86:271-278).

CC1=C(C)C(=O)C(CCCCCCCCCC[P+](c2ccccc2)(c2ccccc2)c2ccccc2)=CC1=O [SkQ1]
ICAM-1 mRNA levels in aorta of treated old mice compared to the control group [1]: significantly lowered
Degradation rate, percent per day ([2]; 400 mkM in 10% 1,2-propylene glycol, at 60° C.): 0.47 percent per day
Degradation rate, percent per day ([2]; 400 mkM in 10% Glycerol): 0.61 percent per day
Degradation rate, percent per day ([2]; 400 mkM in 20% Glycerol): 0.51 percent per day
Degradation rate, percent per day ([2]; 400 mkM in 30% Glycerol): 0.53 percent per day
Degradation rate, percent per day ([2]; 400 mkM in 40% Glycerol): 0.91 percent per day
Degradation rate, percent per day ([2]; 400 mkM in 50% 1,2-propylene glycol, at 60° C.): 0.06 percent per day
Degradation rate, percent per day ([2]; 400 mkM in 50% Glycerol): 1.54 percent per day
Degradation rate, percent per day ([2]; 400 mkM in 50% lactulose): 9.01 percent per day
Degradation rate, percent per day ([2]; 400 mkM in 60% Glycerol): 1.92 percent per day
Degradation rate, percent per day ([2]; 400 mkM in 70% Glycerol): 2.4 percent per day
Degradation rate, percent per day ([2]; 400 mkM in 80% Glycerol): 3.2 percent per day
Degradation rate, percent per day ([2]; 400 mkM in 90% Glycerol): 4.18 percent per day
Degradation rate, percent per day ([2]; 400 mkM in 100% 1,2-propylene glycol, at 60° C.): 0.18 percent per day
expression of inflammatory cytokines (IL-6, IL-8) [3]: prevents excessive expression
SkQ1 purity ([4]; after storage for 12 d at 60° C.): 95.1%
loss from the initial concentration of the active compound ([4]; calculated for storage for 1 year at 4° C.): approximately 3.5%
SkQ1 purity ([4]; initial): 98.7%
neutrophil infiltration of wounds [5]: decreasing
rate of epithelization of wounds [5]: increasing
vascularization of wounds (vessel density) [5]: increasing
MDA levels in the liver [6]: significantly lowered
